Legend:
wild-type MDF cells = experiment: FACS cell death assay (PI uptake by flow cytometry) after necroptotic stimulus; type: cell-based, mouse; details: for inhibition of TSQ-induced necroptosis (PI uptake, flow cytometry): TSQ 24 h, control comparison at concentrations >1 µM; for inhibition of TSZ-induced necroptosis (PI uptake, flow cytometry): TSZ 24 h
Protocol: In the first protocol, WT MDF cells were seeded at 1.0 × 10^5 cells per well in 24-well plates and allowed to settle for 4 h at 37°C 10% CO2. […] After 24 h, cells were harvested, stained with 1 µg/ml propidium iodide (PI; Sigma–Aldrich) and PI positive cells were quantified by flow cytometry on a BD FACSCalibur instrument. In the second protocol, WT MDF cells were seeded at 5.0 × 10^4 cells in 500 µl per well in 24-well plates (Falcon, cat #353047) and allowed to settle for 24 h at 37°C 10% CO2. […] For all compounds and reagents, 0.5 µl of 1000× stocks were used. Cells were harvested, stained with 2 µg/ml propidium iodide (PI; Sigma–Aldrich) and PI positive cells were quantified by flow cytometry on a BD FACSCalibur instrument.

[1] = system: RIPK1 phosphorylation in MDF cells; experiment: Cellular phosphorylation assay, Western blot of phospho-RIPK1; type: cell-based, mouse; details: 10 µM, 2 h pre-treatment; TSI 2 h; wild-type MDF cells
Protocol: (§1) WT, Ripk1^−/−Mlkl^−/− and Ripk3^−/− MDF cell lines were seeded at 3.0 × 10^5 cells in 1 ml per well in 12-well plates (Corning, cat #3512) and allowed to settle for 24 h at 37°C 10% CO2. WT cells were treated with DMSO alone or compounds (1 µM or 10 µM), as specified, for 2 h. Ripk1^−/−Mlkl^−/− and Ripk3^−/− cells were left untreated. Cells were stimulated with TSI to induce phosphorylation of RIPK1 and RIPK3, or left unstimulated, for 2 h. For all compounds and reagents, 1 µl of 1000× stocks were used. Cells were harvested, washed with 500 µl DPBS (Gibco) and lysed in 25 µl of ice-cold RIPA buffer (25 mM Tris–HCl pH 7.5, 150 mM NaCl, 1% v/v Nonidet P-40, 1% w/v Na Deoxycholate, 0.1% w/v SDS) containing cOmplete EDTA-free Protease Inhibitor Cocktail (Roche), PhosSTOP Phosphatase Inhibitor Cocktail (Roche) and benzonase nuclease (Sigma–Aldrich) for 30 min on ice. Whole cell lysates were stored at −80°C until protein quantification, SDS–PAGE and Western blots were performed. Briefly, whole cell lysates were thawed on ice then quantified using the BCA Protein Assay with bicinchoninic acid solution (Sigma–Aldrich) and copper sulfate solution (Sigma–Aldrich). NuPAGE LDS Sample Buffer (Invitrogen) containing TCEP (Sigma–Aldrich) was added to the whole cell lysates to obtain 20 µg protein in 20 µl total volume per sample. Samples were heated at 95°C for 10 minutes and 20 µl of each sample was run on NuPAGE 4–12% Bis-Tris 1.0 mm × 12-well Mini Gels (Invitrogen) using NuPAGE MES SDS Running Buffer (Invitrogen) along with the Precision Plus Kaleidoscope Prestained Protein Standard (Bio-Rad). Western blots were performed according to the Western Blotting General Procedure above.

[2] = target: T1, endogenous mouse RIPK1 in MDF cells (Mus musculus, UniProt Q60855); experiment: Cellular Thermal Shift Assay (CETSA); type: binding; details: 20 µM
T1 construct: endogenous in cells; host or cells: wild-type mouse dermal fibroblasts (MDF)
T1 sequence (Q60855 1-656): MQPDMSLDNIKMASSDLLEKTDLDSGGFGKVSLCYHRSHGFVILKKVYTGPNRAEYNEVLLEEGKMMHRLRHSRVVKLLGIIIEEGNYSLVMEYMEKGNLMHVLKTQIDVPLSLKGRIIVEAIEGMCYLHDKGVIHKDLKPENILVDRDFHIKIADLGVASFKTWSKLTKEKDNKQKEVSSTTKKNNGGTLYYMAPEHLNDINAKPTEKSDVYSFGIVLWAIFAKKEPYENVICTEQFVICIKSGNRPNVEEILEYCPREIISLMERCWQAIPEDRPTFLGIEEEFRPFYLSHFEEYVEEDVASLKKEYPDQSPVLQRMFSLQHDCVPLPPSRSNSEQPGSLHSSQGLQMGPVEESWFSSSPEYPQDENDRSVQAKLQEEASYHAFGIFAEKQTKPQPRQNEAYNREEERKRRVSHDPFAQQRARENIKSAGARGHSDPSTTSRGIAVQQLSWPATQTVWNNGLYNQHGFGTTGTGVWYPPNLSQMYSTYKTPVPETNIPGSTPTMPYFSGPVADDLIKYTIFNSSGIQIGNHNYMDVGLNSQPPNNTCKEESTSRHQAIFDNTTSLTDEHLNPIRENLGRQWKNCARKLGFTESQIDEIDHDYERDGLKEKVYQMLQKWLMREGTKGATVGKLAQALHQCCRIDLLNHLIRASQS
Protocol: (§2) CETSA was performed as previously described. Briefly, Mlkl^−/− MDF cells were treated with doxycycline (20 ng/ml) for 4 h to induce expression of the MLKL Q343A mutant and then seeded to obtain 1.5 × 10^6 cells per temperature point. WT MDF or U937 cells were seeded to obtain 1.5 × 10^6 cells per temperature point. Cells were treated with DMSO or compounds (20 µM), as specified, for 1 h at 37°C 10% CO2. Cells were spun down, washed with 5 ml DPBS (Gibco), resuspended in DPBS containing cOmplete EDTA-free Protease Inhibitor Cocktail (Roche) and aliquoted into 100 µl samples per temperature point in PCR tubes. Live cell suspensions were heated across a temperature gradient (below) for 3 min in a T100 Thermal Cycler (Bio-Rad), cooled at room temperature for 3 min, snap frozen in liquid N2 and stored at −80°C overnight.
(§3) Samples were freeze-thawed once to lyse the cells. Soluble protein was separated from precipitated protein via centrifugation at 17 000×g for 30 min at 4°C. Soluble protein fractions were resolved by SDS–PAGE and analysed by Western blot. Briefly, 10 µl of each soluble protein sample was added to 10 µl of NuPAGE LDS Sample Buffer (Invitrogen) containing TCEP (Sigma–Aldrich). Samples were heated at 95°C for 10 min and then 15 µl of each sample was run on a gel along with the Precision Plus Kaleidoscope Prestained Protein Standard (Bio-Rad), using either NuPAGE 4–12% Bis-Tris 1.0 mm × 20-well Midi Gels (Invitrogen) with NuPAGE MES SDS Running Buffer (Invitrogen), or 4–15% Criterion TGX Stain-Free 26 well 15 µl Protein Gels (Bio-Rad) with Tris/Glycine Buffer (Bio-Rad). Western blots were performed according to the Western Blotting General Procedure above.

[3] = target: T2, endogenous mouse RIPK3 in MDF cells (Mus musculus, UniProt Q9QZL0); experiment: Cellular Thermal Shift Assay (CETSA); type: binding; details: 20 µM
T2 construct: endogenous in cells; host or cells: wild-type mouse dermal fibroblasts (MDF)
T2 sequence (Q9QZL0 whole entry): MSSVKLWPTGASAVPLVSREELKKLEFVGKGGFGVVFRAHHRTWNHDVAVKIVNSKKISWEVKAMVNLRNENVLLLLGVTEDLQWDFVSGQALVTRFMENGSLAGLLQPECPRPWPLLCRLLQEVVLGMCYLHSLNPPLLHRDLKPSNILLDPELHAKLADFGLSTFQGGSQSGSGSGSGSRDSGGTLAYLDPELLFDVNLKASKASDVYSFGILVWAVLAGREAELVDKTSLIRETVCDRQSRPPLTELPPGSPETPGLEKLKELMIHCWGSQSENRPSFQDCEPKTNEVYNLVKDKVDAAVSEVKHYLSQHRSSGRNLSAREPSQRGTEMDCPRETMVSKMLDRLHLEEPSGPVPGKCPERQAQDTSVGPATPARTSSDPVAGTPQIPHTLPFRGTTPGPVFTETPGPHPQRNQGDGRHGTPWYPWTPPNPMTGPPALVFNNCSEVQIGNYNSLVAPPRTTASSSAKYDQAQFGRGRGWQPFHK
Protocol: as §2, §3

[4] = system: RIPK3 phosphorylation in MDF cells; experiment: Cellular phosphorylation assay, Western blot of phospho-RIPK3; type: cell-based, mouse; details: 10 µM, 2 h pre-treatment; TSI 2 h; wild-type MDF cells
Protocol: as §1

Row | effect on thermal stability of endogenous mouse RIPK1 (CETSA) [2] | SMILES | inhibition of TSQ-induced necroptosis (PI uptake, flow cytometry) (wild-type MDF cells) | inhibition of TSZ-induced necroptosis (PI uptake, flow cytometry) (wild-type MDF cells) | effect on RIPK1 phosphorylation (phospho-RIPK1 signal, Western blot) [1] | effect on thermal stability of endogenous mouse RIPK3 (CETSA) [3] | effect on RIPK3 phosphorylation (phospho-RIPK3 signal, Western blot) [4]
1 |  | Cc1cc(-c2cnc(N)c3c(-c4ccc5scnc5c4)csc23)n(C)n1 [GSK′843] | protection was comparable | more potent protection with the control inhibitors compared with ABT-869 |  |  | 
2 | increased the thermal stability | CN1C(=O)NC(Cc2c[nH]c3c(Cl)cccc23)C1=O (centres unmarked) [Nec-1s] |  |  | almost completely ablated RIPK1 phosphorylation |  | 
3 |  | CC(C)S(=O)(=O)c1ccc2nccc(Nc3ccc4scnc4c3)c2c1 [GSK′872] | protection was comparable | more potent protection with the control inhibitors compared with ABT-869 |  | had no effect on RIPK3 stability | almost completely inhibited
